Assay results: patent publication US20230218632A1, “CYCLIC SULFONAMIDE DERIVATIVES AS TRAP1 MODULATORS AND USES THEREOF” (Amathus Therapeutics, Inc., priority 2020, published 2023)

Molecular target: T1, TRAP1 enzyme (Homo sapiens, UniProt Q12931)
T1 sequence (Q12931 60-704): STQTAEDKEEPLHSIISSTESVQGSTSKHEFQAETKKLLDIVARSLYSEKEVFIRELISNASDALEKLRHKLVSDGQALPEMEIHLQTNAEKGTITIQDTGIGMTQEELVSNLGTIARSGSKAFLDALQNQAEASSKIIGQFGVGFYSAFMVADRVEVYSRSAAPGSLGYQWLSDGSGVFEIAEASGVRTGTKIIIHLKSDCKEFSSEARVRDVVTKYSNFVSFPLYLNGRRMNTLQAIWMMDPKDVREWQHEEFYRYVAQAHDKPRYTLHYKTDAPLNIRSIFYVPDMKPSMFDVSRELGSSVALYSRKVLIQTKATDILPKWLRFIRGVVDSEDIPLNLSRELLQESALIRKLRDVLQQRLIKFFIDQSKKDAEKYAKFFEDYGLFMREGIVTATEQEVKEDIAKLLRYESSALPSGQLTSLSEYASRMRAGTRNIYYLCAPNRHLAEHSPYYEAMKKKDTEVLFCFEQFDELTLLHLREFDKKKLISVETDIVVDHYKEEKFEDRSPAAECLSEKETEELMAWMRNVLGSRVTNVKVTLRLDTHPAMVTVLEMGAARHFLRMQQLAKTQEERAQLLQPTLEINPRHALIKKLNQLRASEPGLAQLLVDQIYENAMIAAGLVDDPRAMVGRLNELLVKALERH
Test: ADP Glo assay (ATPase activity of TRAP1)
Assay type: biochemical
Summary of the method: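 150 nM TRAP1 preincubated 30 min at 37 °C with compound (0.79–100 µM) in 25 mM Pipes pH 7.5, 40 mM KCl, 0.05 mM MgCl2; reaction started with 20 µM ATP, 60 min at 37 °C. ADP quantified by ADP-Glo luminescence against an ATP/ADP standard curve; Emax and EC50 from sigmoidal fits of activation.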

EC50 (150 nM Trap1, 20 µM ATP, concentration for half maximal activation, read-out: ADP GLO DRC: GeoMean EC50): < 20 µM
Emax (maximal percent activation, read-out: ADP GLO DRC: Mean Emax): 150 to 200%
Structure (SMILES): O=C(Nc1ccc2c(c1)S(=O)(=O)N(c1ccc(Br)cc1)CCO2)c1cnc(-c2ccccc2)[nH]1 [Compound 1331, N-(2-(4-bromophenyl)-1,1-dioxido-3,4-dihydro-2H-benzo[b][1,4,5]oxathiazepin-8-yl)-2-phenyl-1H-imidazole-5-carboxamide]
